According to patent publication US7696408B2, “Method to enhance Agrobacterium-mediated transformation of plants” (Regents of the University of Minnesota, priority 1999, dated 2010):
Where “and” joins values, the source holds several entries; their conditions need not be identical. Equal values may be shown once. Entries after “also recorded” stand apart in the source; their conditions may differ.

System: soybean cot-node explants
Assay: GUS+ sectors, shoots and shoot primordia after 28 days (4 weeks) on shoot induction medium with PPT (stable transformation)
Assay type: cell-based, Glycine max
Details: for % of explants with GUS+ shoots: Bert
Description: After 5 days, the explants were washed in a liquid shoot induction media (B5 salts, MSIII iron stock, 3% sucrose, 3 mM MES, and filter sterilized B5 vitamins, 1.67 mg/l BAP, 100 mg/l cefotaxime, and 500 mg/l ticarcillin; pH 5.6) to remove excess Agrobacterium. Seven to ten explants from each cysteine level were washed in liquid shoot induction medium and placed in GUS histochemical stain (Jefferson et al., 1987). These explants were scored for GUS transient expression. Five to ten explants from each group were imbedded into a single 25×100 mm petri plate with solid shoot induction media (0.8% agar and agent, e.g., 400 mg/l cysteine) containing PPT concentrations of 1.33 mg/l, 3.33 mg/l, or 5.0 mg/l for selection. The plates were then incubated in a growth chamber with a fluctuating temperature between 18° C.-30° C. under a 18 hours light/6 hours dark cycle at 90-150 μE/m^2s. The explants were removed from the chamber after 14 days and transferred to fresh shoot induction media containing herbicide selection. During the transfer, the hypocotyl was carefully removed from the developing shoot mass and imbedded into the media with the differentiating tissue flush with the media surface. The plates were placed back into the growth chamber for an additional 2 weeks. At the 4 week time point, explants without de novo shoot production were discarded. The cotyledons were then removed from the differentiating tissue by cutting at the base of the node and the callus trimmed before transferring into shoot elongation media containing MS salts (murashige and Skoog, 1962), MSIII iron stock, 3% sucrose, 3 mM MES, 0.8% agar, and filter sterilized B5 vitamins, 50 mg/l asparagine, 100 mg/l pyroglutamic acid, 1 mg/l zeatin riboside, 0.1 mg/l indole-acetic acid, 0.5 mg/l GA3, 100 mg/l cefotaxime, 500 mg/l ticarcillin, 1.3-5 mg/l PPT; pH 5.6). Also at this time, a percentage of the explants were sliced into about 10 sections and stained for both GUS positive sectors and GUS positive shoots. Every 2 weeks the explants were transferred into new shoot elongation media after removing dead plant tissue and the bottom of the explant cut to encourage shoot elongation of transformed shoots. For the 4 week data, the minimum number of transformation events was recorded. Those explants with a GUS positive sector in the differentiating tissue giving rise to shoots were recorded with the number of transformation events in bold and italicized (FIGS. 2-5). Shoot data was obtained by recording the number of fully formed shoots seen on an explant. […] To determine the effect of adding cysteine to the co-cultivation medium on stable transformation, co-cultured explants were cultured for 28 days on a shoot-inducing medium containing the herbicide, phosphinothricin (PPT). During the 28 day incubation, the explants usually form de novo callus and shoots in the cot-node region in a structure referred to as a callus/shoot pad (FIG. 9). The callus/shoot pads were sliced in approximately 5 mm sections, immersed into GUS histochemical stain, and scored for GUS^+ sectors throughout the callus/shoot pad. […] The formation of transgenic shoot primordia and sectors extending into developing shoot tissues were also scored on 28 day sections of explants co-cultivated on 0 and 400 mg/l cysteine (FIG. 10A). Only those GUS^+ shoot primordia with obvious trichomes, which are characteristic to leaf tissue, or GUS^+ sectors originating and extending into the tissue at the base of developing shoots (referred to hereafter as differentiating tissue) were scored (FIG. 1A2).

[1] = cysteine 400-1000 mg/l, eight independent experiments

N[C@@H](CS)C(=O)O [L-cysteine]
% of explants with GUS+ shoots (400 mg/l cysteine and 3.33 mg/l PPT): 16.6% and 16.7% | % of explants with GUS+ shoots (400 mg/l cysteine and 5 mg/l PPT): 33.3% | average number of GUS+ sectors per explant, each genotype tested (400 mg/l cysteine vs no cysteine, 28 day): significantly greater | frequency of explants with a GUS+ sector in differentiating tissue, relative to no cysteine (400 mg/l cysteine, 28 days): 3.5 fold | percent of explants with GUS+ shoot primordia, relative to no cysteine (400 mg/l cysteine, 28 days): 5 fold | average GUS+ foci/explant scored after 4 weeks of shoot initiation (400 mg/l cysteine, low selection pressure 1.6 to 3.33 mg/l PPT, control 3.3): 15.6 GUS+ foci/explant | percent of explants with GUS+ shoot primordia or differentiated sectors, difference from 0 mg/l cysteine (400 mg/l shoot primordia and differentiated sectors, 1000 mg/l shoot primordia, α=0.05): significantly differ | increase in GUS+ sectors over the control explants (1000 mg/l cysteine, 28 days): 3.6 fold | average number of GUS+ sectors per explant compared to no cysteine (300 to 1000 mg/l cysteine (FIG. 9 also 1500 mg/l), 28 days, P<0.05): significantly higher; also recorded: significantly differ | increase in GUS+ sectors over the no cysteine control (400 to 1000 mg/l cysteine, 28 days): > 3 fold | explants with GUS+ shoot primordia at other cysteine levels (all other levels of cysteine tested, except 50 mg/l, 28 days): at least one explant | GUS+ foci at the 28-day interval (amended to solid co-cultivation media): increase | increase in GUS+ shoot primordia after 28 days [1]: 5 fold | increase in stable T-DNA integration after 28 days [1]: 3.6 fold | number of GUS+ sectors on the callus/shoot pad, cysteine in shoot induction medium (cysteine added to shoot induction medium for 28 days): did not increase | increase in stable T-DNA transfer in newly developed shoot primordia (cysteine in co-cultivation media): ≥ 5 fold
